Columns and labels:
Assay in all cases: relative viability (nuclei count vs DMSO), 5 days (fraction); higher = more cells survive
Ponatinib = compound: Cc1ccc(C(=O)Nc2ccc(CN3CCN(C)CC3)c(C(F)(F)F)c2)cc1C#Cc1cnc2cccnn12 [Ponatinib]
How it was run: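 For viability, nuclei in each treated well were divided by nuclei in vehicle wells and the median across plates was taken. Lung cancer cell lines in 1536-well plates were pinned with five library-drug doses (not always all listed) spaced by √10, cultured 5 days without medium change, and imaged at 4× after Hoechst staining, with plates passing only at control CV below 25% and at least one doubling.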

Ponatinib + Pemetrexed = compound: Cc1ccc(C(=O)Nc2ccc(CN3CCN(C)CC3)c(C(F)(F)F)c2)cc1C#Cc1cnc2cccnn12 [Ponatinib] + Nc1nc2[nH]cc(CCc3ccc(C(=O)N[C@@H](CCC(=O)O)C(=O)O)cc3)c2c(=O)[nH]1 [Pemetrexed] (partner 0.2 µM)
How it was run: (§1)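 The day after seeding in 1536-well plates, lung cancer cell lines were treated by pin tool with a single drug, or with a fixed anchor-drug dose together with five library-drug doses (not always all listed) in √10 steps. After 5 days, a combined fix-and-stain solution (final 0.05% Triton X-100, 1% formaldehyde, 1 ug/ml Hoechst) was added. Nuclei counted on 4× images gave relative viability as treated counts over vehicle counts, reported as the median of duplicate plates.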

Pazopanib + Phenformin = compound: Cc1ccc(Nc2nccc(N(C)c3ccc4c(C)n(C)nc4c3)n2)cc1S(N)(=O)=O [Pazopanib] + N=C(N)NC(=N)NCCc1ccccc1 [Phenformin] (partner 250 µM)
How it was run: as §1

Ponatinib + Bortezomib = compound: Cc1ccc(C(=O)Nc2ccc(CN3CCN(C)CC3)c(C(F)(F)F)c2)cc1C#Cc1cnc2cccnn12 [Ponatinib] + CC(C)C[C@H](NC(=O)[C@H](Cc1ccccc1)NC(=O)c1cnccn1)B(O)O [Bortezomib] (partner 0.002 µM)
How it was run: as §1

## NCI-H358
Ponatinib; 0.002 µM
  relative viability: 0.904
Ponatinib; 0.006325 µM
  relative viability: 1.04
Ponatinib; 0.06325 µM
  relative viability: 1.01
Ponatinib; 0.2 µM
  relative viability: 0.9
Ponatinib + Pemetrexed; first compound 0.002 µM
  relative viability: 0.168
Ponatinib + Pemetrexed; first compound 0.006325 µM
  relative viability: 0.162
Ponatinib + Pemetrexed; first compound 0.06325 µM
  relative viability: 0.189
Ponatinib + Pemetrexed; first compound 0.2 µM
  relative viability: 0.174
Pazopanib + Phenformin; first compound 0.01 µM
  relative viability: 0.388
Pazopanib + Phenformin; first compound 0.03162 µM
  relative viability: 0.384
Pazopanib + Phenformin; first compound 0.1 µM
  relative viability: 0.37
Pazopanib + Phenformin; first compound 1 µM
  relative viability: 0.548

## NCI-H522
Ponatinib; 0.002 µM
  relative viability: 0.816
Ponatinib; 0.006325 µM
  relative viability: 1
Ponatinib; 0.06325 µM
  relative viability: 0.818
Ponatinib; 0.2 µM
  relative viability: 0.847
Ponatinib + Pemetrexed; first compound 0.002 µM
  relative viability: 0.753
Ponatinib + Pemetrexed; first compound 0.006325 µM
  relative viability: 1.15
Ponatinib + Pemetrexed; first compound 0.06325 µM
  relative viability: 1.15
Ponatinib + Pemetrexed; first compound 0.2 µM
  relative viability: 1.13
Pazopanib + Phenformin; first compound 0.01 µM
  relative viability: 0.532
Pazopanib + Phenformin; first compound 0.03162 µM
  relative viability: 0.618
Pazopanib + Phenformin; first compound 0.1 µM
  relative viability: 0.71
Pazopanib + Phenformin; first compound 0.3162 µM
  relative viability: 0.7
Pazopanib + Phenformin; first compound 1 µM
  relative viability: 0.65

## NCI-H727
Ponatinib; 0.002 µM
  relative viability: 0.883
Ponatinib; 0.006325 µM
  relative viability: 0.855
Ponatinib; 0.06325 µM
  relative viability: 1.2
Ponatinib; 0.2 µM
  relative viability: 0.872
Ponatinib + Bortezomib; first compound 0.002 µM
  relative viability: 0.625
Ponatinib + Bortezomib; first compound 0.006325 µM
  relative viability: 0.856
Ponatinib + Bortezomib; first compound 0.06325 µM
  relative viability: 0.851
Ponatinib + Bortezomib; first compound 0.2 µM
  relative viability: 0.824
Pazopanib + Phenformin; first compound 0.01 µM
  relative viability: 0.455
Pazopanib + Phenformin; first compound 0.03162 µM
  relative viability: 0.522
Pazopanib + Phenformin; first compound 0.1 µM
  relative viability: 0.57
Pazopanib + Phenformin; first compound 0.3162 µM
  relative viability: 0.584
Pazopanib + Phenformin; first compound 1 µM
  relative viability: 0.682

## NCI-H1299
Ponatinib; 0.002 µM
  relative viability: 0.997
Ponatinib; 0.006325 µM
  relative viability: 1.02
Ponatinib; 0.06325 µM
  relative viability: 1.02
Ponatinib; 0.2 µM
  relative viability: 0.931
Ponatinib + Bortezomib; first compound 0.002 µM
  relative viability: 1.05
Ponatinib + Bortezomib; first compound 0.006325 µM
  relative viability: 1
Ponatinib + Bortezomib; first compound 0.06325 µM
  relative viability: 1.06
Ponatinib + Bortezomib; first compound 0.2 µM
  relative viability: 0.993

## NCI-H1395
Ponatinib; 0.002 µM
  relative viability: 0.675
Ponatinib; 0.006325 µM
  relative viability: 0.934
Ponatinib; 0.06325 µM
  relative viability: 0.91
Ponatinib; 0.2 µM
  relative viability: 0.708
Ponatinib + Pemetrexed; first compound 0.002 µM
  relative viability: 0.755
Ponatinib + Pemetrexed; first compound 0.006325 µM
  relative viability: 0.819
Ponatinib + Pemetrexed; first compound 0.06325 µM
  relative viability: 0.871
Ponatinib + Pemetrexed; first compound 0.2 µM
  relative viability: 0.624
Pazopanib + Phenformin; first compound 0.01 µM
  relative viability: 0.384
Pazopanib + Phenformin; first compound 0.03162 µM
  relative viability: 0.441
Pazopanib + Phenformin; first compound 0.1 µM
  relative viability: 0.454
Pazopanib + Phenformin; first compound 0.3162 µM
  relative viability: 0.511
Pazopanib + Phenformin; first compound 1 µM
  relative viability: 0.51

## NCI-H1623
Ponatinib; 0.002 µM
  relative viability: 0.991
Ponatinib; 0.006325 µM
  relative viability: 1.05
Ponatinib; 0.06325 µM
  relative viability: 1.01
Ponatinib; 0.2 µM
  relative viability: 0.969
Pazopanib + Phenformin; first compound 0.01 µM
  relative viability: 0.584
Pazopanib + Phenformin; first compound 0.03162 µM
  relative viability: 0.541
Pazopanib + Phenformin; first compound 0.1 µM
  relative viability: 0.58
Pazopanib + Phenformin; first compound 0.3162 µM
  relative viability: 0.574
Pazopanib + Phenformin; first compound 1 µM
  relative viability: 0.595

## NCI-H1648
Ponatinib; 0.002 µM
  relative viability: 0.862
Ponatinib; 0.006325 µM
  relative viability: 0.836
Ponatinib; 0.06325 µM
  relative viability: 0.671
Ponatinib; 0.2 µM
  relative viability: 0.799
Ponatinib + Pemetrexed; first compound 0.002 µM
  relative viability: 0.574
Ponatinib + Pemetrexed; first compound 0.006325 µM
  relative viability: 0.667
Ponatinib + Pemetrexed; first compound 0.06325 µM
  relative viability: 0.63
Ponatinib + Pemetrexed; first compound 0.2 µM
  relative viability: 0.618

## NCI-H1703
Ponatinib; 0.002 µM
  relative viability: 0.821
Ponatinib; 0.006325 µM
  relative viability: 0.83
Ponatinib; 0.06325 µM
  relative viability: 0.466
Ponatinib; 0.2 µM
  relative viability: 0.333
Ponatinib + Bortezomib; first compound 0.002 µM
  relative viability: 0.296
Ponatinib + Bortezomib; first compound 0.006325 µM
  relative viability: 0.261
Ponatinib + Bortezomib; first compound 0.06325 µM
  relative viability: 0.26
Ponatinib + Bortezomib; first compound 0.2 µM
  relative viability: 0.143

## NCI-H1793
Ponatinib; 0.002 µM
  relative viability: 0.959
Ponatinib; 0.006325 µM
  relative viability: 0.914
Ponatinib; 0.06325 µM
  relative viability: 0.89
Ponatinib; 0.2 µM
  relative viability: 0.715
Ponatinib + Pemetrexed; first compound 0.002 µM
  relative viability: 0.792
Ponatinib + Pemetrexed; first compound 0.006325 µM
  relative viability: 0.914
Ponatinib + Pemetrexed; first compound 0.06325 µM
  relative viability: 0.774
Ponatinib + Pemetrexed; first compound 0.2 µM
  relative viability: 0.671
Pazopanib + Phenformin; first compound 0.03162 µM
  relative viability: 0.419
Pazopanib + Phenformin; first compound 0.1 µM
  relative viability: 0.394
Pazopanib + Phenformin; first compound 0.3162 µM
  relative viability: 0.425
Pazopanib + Phenformin; first compound 1 µM
  relative viability: 0.421

## NCI-H1944
Ponatinib; 0.002 µM
  relative viability: 0.828
Ponatinib; 0.006325 µM
  relative viability: 1.01
Ponatinib; 0.06325 µM
  relative viability: 0.957
Ponatinib; 0.2 µM
  relative viability: 1
Ponatinib + Pemetrexed; first compound 0.002 µM
  relative viability: 0.631
Ponatinib + Pemetrexed; first compound 0.006325 µM
  relative viability: 0.662
Ponatinib + Pemetrexed; first compound 0.06325 µM
  relative viability: 0.676
Ponatinib + Pemetrexed; first compound 0.2 µM
  relative viability: 0.719
Pazopanib + Phenformin; first compound 0.03162 µM
  relative viability: 0.191
Pazopanib + Phenformin; first compound 0.1 µM
  relative viability: 0.218
Pazopanib + Phenformin; first compound 0.3162 µM
  relative viability: 0.227
Pazopanib + Phenformin; first compound 1 µM
  relative viability: 0.228

## NCI-H2170
Ponatinib; 0.002 µM
  relative viability: 0.927
Ponatinib; 0.006325 µM
  relative viability: 0.969
Ponatinib; 0.06325 µM
  relative viability: 1
Ponatinib; 0.2 µM
  relative viability: 0.917
Ponatinib + Pemetrexed; first compound 0.002 µM
  relative viability: 0.238
Ponatinib + Pemetrexed; first compound 0.006325 µM
  relative viability: 0.263
Ponatinib + Pemetrexed; first compound 0.06325 µM
  relative viability: 0.281
Ponatinib + Pemetrexed; first compound 0.2 µM
  relative viability: 0.331
Pazopanib + Phenformin; first compound 0.01 µM
  relative viability: 0.507
Pazopanib + Phenformin; first compound 0.03162 µM
  relative viability: 0.406
Pazopanib + Phenformin; first compound 0.1 µM
  relative viability: 0.393
Pazopanib + Phenformin; first compound 0.3162 µM
  relative viability: 0.423
Pazopanib + Phenformin; first compound 1 µM
  relative viability: 0.388

## NCI-H2342
Ponatinib; 0.002 µM
  relative viability: 0.958
Ponatinib; 0.006325 µM
  relative viability: 0.946
Ponatinib; 0.06325 µM
  relative viability: 1.01
Ponatinib; 0.2 µM
  relative viability: 0.999
Ponatinib + Pemetrexed; first compound 0.002 µM
  relative viability: 0.71
Ponatinib + Pemetrexed; first compound 0.006325 µM
  relative viability: 0.733
Ponatinib + Pemetrexed; first compound 0.06325 µM
  relative viability: 0.726
Ponatinib + Pemetrexed; first compound 0.2 µM
  relative viability: 0.646
Pazopanib + Phenformin; first compound 0.01 µM
  relative viability: 0.501
Pazopanib + Phenformin; first compound 0.03162 µM
  relative viability: 0.635
Pazopanib + Phenformin; first compound 0.1 µM
  relative viability: 0.538
Pazopanib + Phenformin; first compound 0.3162 µM
  relative viability: 0.572
Pazopanib + Phenformin; first compound 1 µM
  relative viability: 0.569

## SK-MES-1
Ponatinib; 0.002 µM
  relative viability: 0.944
Ponatinib; 0.006325 µM
  relative viability: 1.06
Ponatinib; 0.06325 µM
  relative viability: 1.15
Ponatinib; 0.2 µM
  relative viability: 1
Ponatinib + Pemetrexed; first compound 0.002 µM
  relative viability: 0.89
Ponatinib + Pemetrexed; first compound 0.006325 µM
  relative viability: 0.934
Ponatinib + Pemetrexed; first compound 0.06325 µM
  relative viability: 1.16
Ponatinib + Pemetrexed; first compound 0.2 µM
  relative viability: 0.948
Pazopanib + Phenformin; first compound 0.01 µM
  relative viability: 0.734
Pazopanib + Phenformin; first compound 0.03162 µM
  relative viability: 0.661
Pazopanib + Phenformin; first compound 0.1 µM
  relative viability: 0.668
Pazopanib + Phenformin; first compound 0.3162 µM
  relative viability: 0.669
Pazopanib + Phenformin; first compound 1 µM
  relative viability: 0.688

## SW 900
Ponatinib; 0.002 µM
  relative viability: 0.817
Ponatinib; 0.006325 µM
  relative viability: 0.783
Ponatinib; 0.06325 µM
  relative viability: 0.889
Ponatinib; 0.2 µM
  relative viability: 0.794
Ponatinib + Pemetrexed; first compound 0.002 µM
  relative viability: 0.458
Ponatinib + Pemetrexed; first compound 0.006325 µM
  relative viability: 0.495
Ponatinib + Pemetrexed; first compound 0.06325 µM
  relative viability: 0.457
Ponatinib + Pemetrexed; first compound 0.2 µM
  relative viability: 0.464
Pazopanib + Phenformin; first compound 0.01 µM
  relative viability: 0.532
Pazopanib + Phenformin; first compound 0.03162 µM
  relative viability: 0.628
Pazopanib + Phenformin; first compound 0.1 µM
  relative viability: 0.398
Pazopanib + Phenformin; first compound 0.3162 µM
  relative viability: 0.593
Pazopanib + Phenformin; first compound 1 µM
  relative viability: 0.689
